Source: US20080032945A1, “2'-MODIFIED OLIGONUCLEOTIDES” (Isis Pharmaceuticals, Inc., priority 1992, published 2008)
Where “and” joins values, the source holds several entries; their conditions need not be identical. Equal entries are not always repeated. Entries after “also recorded” stand apart in the source; their conditions may differ. Each block holds one substance with its values, some of them ahead of it. d = 2'-deoxy (DNA); m = 2'-O-methyl; f = 2'-fluoro

What was measured:
[1] = tested on: c-raf mRNA; test: Northern blot analysis of inhibition of c-raf mRNA expression in T24 cells; type: cell-based, human
Source text: Chimeric oligonucleotides having SEQ ID NO:7 were designed using the Genbank c-raf sequence HUMRAFR (Genbank listing x03484), synthesized and tested for inhibition of c-raf mRNA expression in T24 bladder carcinoma cells using a Northern blot assay. These chimeric oligonucleotides have central “gap” regions of 6, 8 or 10 deoxynucleotides flanked by two regions of 2′-O-methyl modified nucleotides, and are shown in Table 10. Backbones were uniformly phosphorothioate. […] These oligonucleotides are preferred.
The human urinary bladder cancer cell line T24 was obtained from the American Type Culture Collection (Rockville, Md.). Cells were grown in McCoy's 5A medium with L-glutamine (GIBCO-BRL, Gaithersburg, Md.), supplemented with 10% heat-inactivated fetal calf serum and 50 U/ml each of penicillin and streptomycin. Cells were seeded on 100 mm plates. When they reached 70% confluency, they were treated with oligonucleotide. Plates were washed with 10 ml prewarmed PBS and 5 ml of OptiMEM reduced-serum medium containing 2.5 μl DOTMA. Oligonucleotide with lipofectin was then added to the desired concentration. After 4 hours of treatment, the medium was replaced with McCoy's medium. Cells were harvested 24 to 72 hours after oligonucleotide treatment and RNA was isolated using a standard CsCl purification method. [Kingston in Current Protocols in Molecular Biology, F. M. Ausubel, R. Brent, R. E. Kingston, D. D. Moore, J. A. Smith, J. G. Seidman and K. Strahl, Eds., John Wiley and Sons, New York.] Total RNA was isolated by centrifugation of cell lysates over a CsCl cushion. RNA samples were electrophoresed through 1.2% agarose-formaldehyde gels and transferred to hybridization membranes by capillary diffusion over a 12-14 hour period. The RNA was cross-linked to the membrane by exposure to UV light in a Stratalinker (Stratagene, La Jolla, Calif.) and hybridized to random-primed ^32P-labeled c-raf cDNA probe (obtained from ATCC) or G3PDH probe as a control. RNA was quantitated using a Phosphorimager (Molecular Dynamics, Sunnyvale, Calif.).

[2] = tested on: ras-luciferase (codon-12 point mutation of activated H-ras); test: ras-luciferase reporter gene system; type: cell-based, human; settings: for inhibition of ras-luciferase activity: cells expressing the mutant form of ras-luciferase, dose response, FIGS. 1 and 2
[3] = tested on: 25mer oligoribonucleotide complement; test: Melting curves with 25mer oligoribonucleotide complement; type: binding; settings: 17mer hybridized with 25mer oligoribonucleotide complement
Source text: Other sugar modifications: The effects of other 2′ sugar modifications besides 2′-O-methyl on antisense activity in chimeric oligonucleotides have been examined. These modifications are listed in Table 4, along with the Tm values obtained when 17mer oligonucleotides having 2′-modified nucleotides flanking a 7-base deoxy gap were hybridized with a 25mer oligoribonucleotide complement as described in Example 25. […] As alkyl length increased, Tm decreased.
Absorbance vs. temperature curves were measured at 260 nm using a Gilford 260 spectrophotometer interfaced to an IBM PC computer and a Gilford Response II spectrophotometer. The buffer contained 100 mM Na^+, 10 mM phosphate and 0.1 mM EDTA, pH 7. Oligonucleotide concentration was 4 μM each strand determined from the absorbance at 85° C. and extinction coefficients calculated according to Puglisi and Tinoco [Methods in Enzymol., 180, 304 (1989). Tm values, free energies of duplex formation and association constants were obtained from fits of data to a two state model with linear sloping baselines. [Petersheim and Turner, Biochemistry, 22, 256 (1983). Reported parameters are averages of at least three experiments. For some oligonucleotides, free energies of duplex formation were also obtained from plots of Tm^−1 vs log10 (concentration). Borer et al., J. Mol. Biol., 86, 843 (1974).

[4] = tested on: ras mRNA; test: Northern blot analysis of ras expression in T24 cells; type: cell-based, human; settings: for ras expression / ras mRNA levels: result in words
Description: The human urinary bladder cancer cell line T24 was obtained from the American Type Culture Collection (Rockville Md.). Cells were grown in McCoy's 5A medium with L-glutamine (GIBCO-BRL, Gaithersburg, Md.), supplemented with 10% heat-inactivated fetal calf serum and 50 U/ml each of penicillin and streptomycin. Cells were seeded on 100 mm plates. When they reached 70% confluency, they were treated with oligonucleotide. Plates were washed with 10 ml prewarmed PBS and 5 ml of OptiMEM (GIBCO) reduced-serum medium containing 2.5 μl DOTMA. Oligonucleotide was then added to the desired concentration. After 4 hours of treatment, the medium was replaced with McCoy's medium. Cells were harvested 48 hours after oligonucleotide treatment and RNA was isolated using a standard CsCl purification method. [Kingston in Current Protocols in Molecular Biology, F. M. Ausubel, R. Brent, R. E. Kingston, D. D. Moore, J. A. Smith, J. G. Seidman and K. Strahl, Eds., John Wiley and Sons, New York.] The human epithelioid carcinoma cell line HeLa 229 was obtained from the American Type Culture Collection (Bethesda, Md.). HeLa cells were maintained as monolayers on 6-well plates in Dulbecco's Modified Eagle's medium (DMEM) supplemented with 10% fetal bovine serum and 100 U/ml penicillin. Treatment with oligonucleotide and isolation of RNA were essentially as described above for T24 cells.
Northern hybridization: 10 μg of each RNA was electrophoresed on a 1.2% agarose/formaldehyde gel and transferred overnight to GeneBind 45 nylon membrane (Pharmacia LKB, Piscataway, N.J.) using standard methods. [Kingston in Current Protocols in Molecular Biology, F. M. Ausubel, R. Brent, R. E. Kingston, D. D. Moore, J. A. Smith, J. G. Seidman and K. Strahl, Eds., John Wiley and Sons, New York.] RNA was UV-crosslinked to the membrane. Double-stranded ^32P-labeled probes were synthesized using the Prime a Gene labeling kit (Promega, Madison Wis.). The ras probe was a SalI-NheI fragment of a cDNA clone of the activated (mutant) H-ras mRNA having a GGC-to-GTC mutation at codon-12. The control probe was G3PDH. Blots were prehybridized for 15 minutes at 68° C. with the QuickHyb hybridization solution (Stratagene, La Jolla, Calif.). The heat-denatured radioactive probe (2.5×10^6 counts/2 ml hybridization solution) mixed with 100 μl of 10 mg/ml salmon sperm DNA was added and the membrane was hybridized for 1 hour at 68° C. The blots were washed twice for 15 minutes at room temperature in 2×SSC/0.1% SDS and once for 30 minutes at 60° C. with 0.1×SSC/0.1% SDS. Blots were autoradiographed and the intensity of signal was quantitated using an ImageQuant PhosphorImager (Molecular Dynamics, Sunnyvale, Calif.). Northern blots were first hybridized with the ras probe, then stripped by boiling for 15 minutes in 0.1×SSC/0.1% SDS and rehybridized with the control G3PDH probe to check for correct sample loading.

[5] = tested on: ras mRNA (wild-type H-ras codon-12); test: Northern blot analysis of ras expression in HeLa cells; type: cell-based, human; settings: result in words
Description: Oligonucleotides 2570 and 2503 were also tested to determine their effects on ras expression in HeLa cells, which have a wild-type (i.e., not activated) H-ras codon-12.
The human urinary bladder cancer cell line T24 was obtained from the American Type Culture Collection (Rockville Md.). Cells were grown in McCoy's 5A medium with L-glutamine (GIBCO-BRL, Gaithersburg, Md.), supplemented with 10% heat-inactivated fetal calf serum and 50 U/ml each of penicillin and streptomycin. Cells were seeded on 100 mm plates. When they reached 70% confluency, they were treated with oligonucleotide. Plates were washed with 10 ml prewarmed PBS and 5 ml of OptiMEM (GIBCO) reduced-serum medium containing 2.5 μl DOTMA. Oligonucleotide was then added to the desired concentration. After 4 hours of treatment, the medium was replaced with McCoy's medium. Cells were harvested 48 hours after oligonucleotide treatment and RNA was isolated using a standard CsCl purification method. […]
Northern hybridization: 10 μg of each RNA was electrophoresed on a 1.2% agarose/formaldehyde gel and transferred overnight to GeneBind 45 nylon membrane (Pharmacia LKB, Piscataway, N.J.) using standard methods. […] Blots were autoradiographed and the intensity of signal was quantitated using an ImageQuant PhosphorImager (Molecular Dynamics, Sunnyvale, Calif.). […]

[6] = tested on: H-ras; test: ras transactivation reporter gene assay; type: cell-based; settings: result in words
Description: These 2′ modified oligonucleotides were tested for antisense activity against H-ras using the transactivation reporter gene assay described in Example 26. […] A 2′-fluoro chimeric oligonucleotide with a centered 5-deoxy gap was also active.
The expression plasmid pSV2-oli, containing an activated (codon 12, GGC-GTC) H-ras cDNA insert under control of the constitutive SV40 promoter, was a gift from Dr. Bruno Tocque (Rhone-Poulenc Sante, Vitry, France). This plasmid was used as a template to construct, by PCR, a H-ras expression plasmid under regulation of the steroid-inducible mouse mammary tumor virus (MMTV) promoter. To obtain H-ras coding sequences, the 570 bp coding region of the H-ras gene was amplified by PCR. The PCR primers were designed with unique restriction endonuclease sites in their 5′-regions to facilitate cloning. The PCR product containing the coding region of the H-ras codon 12 mutant oncogene was gel purified, digested, and gel purified once again prior to cloning. This construction was completed by cloning the insert into the expression plasmid pMAMneo (Clontech Laboratories, CA).
The ras-responsive reporter gene pRDO53 was used to detect ras expression. [Owen et al., Proc. Natl. Acad. Sci. U.S.A., 87, 3866 (1990).

[7] = tested on: T24 cancer cell proliferation; test: Antisense oligonucleotide inhibition of proliferation of cancer cells; type: cell-based, human; settings: for IC50: T24 cell proliferation, dose-response; for inhibited cell proliferation: T24 cells
Description: Antisense oligonucleotide inhibition of proliferation of cancer cells: Three 17mer oligonucleotides having the same sequence (SEQ ID NO:1), complementary to the codon 12 region of activated ras, were tested for effects on T24 cancer cell proliferation as described in Example 28. 3985 is a full phosphorothioate oligonucleotide having a 7-deoxy gap flanked by 2′-O-methyl nucleotides, and 4690 is a full phosphorothioate oligonucleotide having a 7-deoxy gap flanked by 2′-F nucleotides (C^FC^FA^F C^FA^FCd CdGdAd CdGdGd C^FG^FC^F C^FC^F, SEQ ID NO:1, nucleotides identified with an “^F” contain a […] substituent group and the remainder of the nucleotides identified with a “d” are 2′-deoxy-erythro-pentofuranosyl nucleotides).
Cells were cultured and treated with oligonucleotide essentially as described in Example 27. Cells were seeded on 60 mm plates and were treated with oligonucleotide in the presence of DOTMA when they reached 70% confluency. Time course experiment: On day 1, cells were treated with a single dose of oligonucleotide at a final concentration of 100 nM. The growth medium was changed once on day 3 and cells were counted every day for 5 days, using a counting chamber. Dose-response experiment: Various concentrations of oligonucleotide (10, 25, 50, 100 or 250 nM) were added to the cells and cells were harvested and counted 3 days later. Oligonucleotides 2570, 3985 and 4690 were tested for effects on T24 cancer cell proliferation.

Substance: CTCGCCCGCTCCTCCTCCCC (all phosphorothioate, sugars by position and methylation of C not given here; further chemistry not fully specified) [ISIS 7849, chimeric 2′-O-methyl P═S c-raf oligonucleotide, 5′UTR]
inhibition of c-raf mRNA expression [1]: > 70%

Substance: CdCdAd CdAdCd CdGdAd CdGdGd CdGdCd CdCd [Oligonucleotide 2570, reference compound]
selectivity toward the mutant form of ras-luciferase as compared to the normal form [2]: threefold
inhibition of ras-luciferase activity [2]: dose-dependent inhibition
Tm [3]: 64.2 °C
ras expression / ras mRNA levels [4]: inhibited ras expression in T24 cells; also recorded: decreased ras mRNA levels in T24 cells
ras expression [5]: did not inhibit ras expression in HeLa cells

Substance: TCCCGCCTGTGACATGCATT (all phosphorothioate, sugars by position and methylation of C not given here; further chemistry not fully specified) [ISIS 6717, chimeric 2′-O-methyl P═S c-raf oligonucleotide, 8-deoxy gap]
inhibition of c-raf mRNA expression [1]: greater than 90%

Substance: Oligonucleotide 4689: SEQ ID NO:1 chimeric oligonucleotide, 2′-fluoro-modified nucleotides flanking a 5-deoxy gap (CCACACCGACGGCGCCC; sugars from the 5' end f6 d5 f6, backbone and methylation of C not given here)
antisense activity against H-ras (ras expression) [6]: also active
inhibition of ras expression / decrease of ras mRNA [4]: 63%

IC50 [7]: 44 nM
Substance: C^FC^FA^F C^FA^FCd CdGdAd CdGdGd C^FG^FC^F C^FC^F [Oligonucleotide 4690]
Tm [3]: 76.9 °C
antisense activity against H-ras (ras expression) [6]: most active
inhibition of ras expression / decrease of ras mRNA [4]: 82%
inhibited cell proliferation [7]: 93%

Substance: TTCTCCTCCTCCCCTGGCAG (sugars from the 5' end m12 d8, all phosphorothioate, T or U not given here) [ISIS 7854, chimeric 2′-O-methyl P═S c-raf oligonucleotide, 3′UTR]
inhibition of c-raf mRNA expression [1]: > 70%

Substance: C^MC^MA^M C^MA^MCd CdGdAd CdGdGd C^MG^MC^M C^MC^M [Oligonucleotide 3985]
inhibition of ras-luciferase activity [2]: greatest inhibition
Tm [3]: 74.7 °C
inhibition of ras expression / decrease of ras mRNA [4]: 95% and 81%
IC50 [7]: 61 nM
inhibited cell proliferation [7]: 82%

Substance: TTCTCGCCCGCTCCTCCTCC (all phosphorothioate, sugars by position and methylation of C not given here; further chemistry not fully specified) [ISIS 7856, chimeric 2′-O-methyl P═S c-raf oligonucleotide, 5′UTR]
inhibition of c-raf mRNA expression [1]: > 70%

Substance: TCCGTCATCGCTCCTCAGGG [Compound 2503, reference compound]
inhibition of ras expression / decrease of ras mRNA [4]: 71%
ras expression / ras mRNA levels [4]: inhibited ras expression in T24 cells
ras expression [5]: inhibited ras expression in HeLa cells
